Test results: US11866518B2, “Bicyclic peptide ligands specific for TSLP” (BicycleTx Limited, priority 2020, dated 2024)
*1 amine or outer side, *2 acyl side, *3 side chain or, on linkers, in order; H or OH if unused. Where a SMILES comes first, the peptide text is derived from it. Bridges are numbered along the chain shown (N, C = ends). [ ]: non-standard residue; d: D form. TATA = O=C(CC[*:1])N1CN(C(=O)CC[*:2])CN(C(=O)CC[*:3])C1; Orn = NCCC[C@H](N)C(=O)O

molecular target: TSLP (Homo sapiens, UniProt Q969D9); test: Human TSLP Surface Plasmon Resonance (SPR) binding assay; set-up: The resulting construct spCD33-6×HN-TEV-hTSLP(29-159)-Avi; 6xHN tag with TEV site (N, cleaved yes); made in house; host or cells: Expi293F cells; conditions: biotinylated human TSLP immobilized on streptavidin chip; 20° C.; steady-state or kinetic 1:1 fit; read-out: hTSLP SPR Kd
Sequence (Q969D9 29-159): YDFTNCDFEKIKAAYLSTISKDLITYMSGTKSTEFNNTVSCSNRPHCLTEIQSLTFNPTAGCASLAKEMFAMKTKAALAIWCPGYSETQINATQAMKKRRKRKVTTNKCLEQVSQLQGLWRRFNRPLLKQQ

With `CC(C)C[C@@H]1NC(=O)[C@H](Cc2c[nH]c3ccccc23)NC(=O)[C@H](Cc2c[nH]c3ccccc23)NC(=O)[C@H](CO)NC(=O)[C@H](CO)NC(=O)[C@@H]2CSCCC(=O)N3CN(CN(C3)C(=O)CCSC[C@H](NC(=O)[C@@H](NC(=O)[C@H](CC(=O)O)NC(=O)[C@H](CCCNC(=N)N)NC(=O)[C@H](CCC(N)=O)NC(=O)[C@H](Cc3ccc(O)cc3)NC(=O)[C@@H](N)CCC(=O)O)C(C)C)C(=O)N[C@@H](CCCNC(=N)N)C(=O)N[C@@H](CC(=O)O)C(=O)N[C@@H](CC(C)C)C(=O)N[C@@H](CC(=O)O)C(=O)N3CCC[C@H]3C(=O)N[C@@H](Cc3c[nH]c4ccccc34)C(=O)N[C@@H]([C@@H](C)O)C(=O)N2)C(=O)CCSC[C@@H](C(=O)N[C@@H](C)C(N)=O)NC1=O` [Example 173, EYQRDV-(SEQ ID NO: 122)-A] as the compound, how does the Kd read?
The Kd was 77 nM.

How did the Kd turn out when `CC(C)C[C@@H]1NC(=O)[C@H](Cc2c[nH]c3ccccc23)NC(=O)[C@H](Cc2c[nH]c3ccccc23)NC(=O)[C@H](CO)NC(=O)[C@H](CO)NC(=O)[C@@H]2CSCCC(=O)N3CN(CN(C3)C(=O)CCSC[C@@H](C(=O)N[C@@H](CO)C(=O)N[C@@H](CCC(=O)O)C(=O)N[C@@H](CO)C(=O)N[C@H](C(=O)N[C@@H](Cc3c[nH]cn3)C(=O)N[C@H](C(=O)N[C@@H](C)C(N)=O)[C@@H](C)O)C(C)C)NC1=O)C(=O)CCSC[C@H](NC(=O)[C@H](C)N)C(=O)N[C@@H](CCCNC(=N)N)C(=O)N[C@@H](CC(=O)O)C(=O)N[C@@H](CC(C)C)C(=O)N[C@@H](CC(=O)O)C(=O)N1CCC[C@H]1C(=O)N[C@@H](Cc1c[nH]c3ccccc13)C(=O)N[C@@H]([C@@H](C)O)C(=O)N2` [Example 175, A-(SEQ ID NO: 122)-SESVHTA] was run?
Its Kd is 240 nM.

For `CC(C)C[C@@H]1NC(=O)[C@H](Cc2c[nH]c3ccccc23)NC(=O)[C@H](Cc2c[nH]c3ccccc23)NC(=O)[C@H](CO)NC(=O)[C@H](CO)NC(=O)[C@@H]2CSCCC(=O)N3CN(CN(C3)C(=O)CCSC[C@@H](C(=O)N[C@@H](CCCCN)C(=O)N3CCC[C@H]3C(=O)N[C@@H](CC(=O)O)C(=O)N[C@@H](Cc3c[nH]cn3)C(=O)N[C@H](C(=O)N[C@@H](CC(=O)O)C(=O)N[C@@H](C)C(N)=O)C(C)C)NC1=O)C(=O)CCSC[C@H](NC(=O)[C@H](C)N)C(=O)N[C@@H](CCCNC(=N)N)C(=O)N[C@@H](CC(=O)O)C(=O)N[C@@H](CC(C)C)C(=O)N[C@@H](CC(=O)O)C(=O)N1CCC[C@H]1C(=O)N[C@@H](Cc1c[nH]c3ccccc13)C(=O)N[C@@H]([C@@H](C)O)C(=O)N2` [Example 177, A-(SEQ ID NO: 122)-KPDHVDA], which Kd is on record?
Its Kd is 580 nM.

For `CC(C)C[C@@H]1NC(=O)[C@H](Cc2c[nH]c3ccccc23)NC(=O)[C@H](Cc2c[nH]c3ccccc23)NC(=O)[C@H]([C@@H](C)O)NC(=O)[C@H](CCC(=O)O)NC(=O)[C@@H]2CSCCC(=O)N3CN(CN(C3)C(=O)CCSC[C@H](N)C(=O)N[C@@H](CCCCN)C(=O)N[C@@H](CCC(=O)O)C(=O)N[C@@H](CC(C)C)C(=O)N[C@@H](CC(=O)O)C(=O)N3CCC[C@H]3C(=O)N[C@@H](Cc3c[nH]c4ccccc34)C(=O)N[C@@H]([C@@H](C)O)C(=O)N2)C(=O)CCSC[C@@H](C(N)=O)NC1=O` [Example 179, (SEQ ID NO: 130)] (H-CKELDPWTCETWWLC-NH2; linker 1-9-15 via TATA), which Kd is on record?
Its Kd is 360 nM.

For `CC(C)C[C@@H]1NC(=O)[C@H](Cc2c[nH]c3ccccc23)NC(=O)[C@H](Cc2c[nH]c3ccccc23)NC(=O)[C@H]([C@@H](C)O)NC(=O)[C@H](CCC(=O)O)NC(=O)[C@@H]2CSCCC(=O)N3CN(CN(C3)C(=O)CCSC[C@H](N)C(=O)N[C@@H](CCCN)C(=O)N[C@@H](CCC(=O)O)C(=O)N[C@@H](CC(C)C)C(=O)N[C@@H](CC(=O)O)C(=O)N3CCC[C@H]3C(=O)N[C@@H](Cc3c[nH]c4ccccc34)C(=O)N[C@@H]([C@@H](C)O)C(=O)N2)C(=O)CCSC[C@@H](C(N)=O)NC1=O` [Example 180, (SEQ ID NO: 131)] (H-C[Orn]ELDPWTCETWWLC-NH2; linker 1-9-15 via TATA; N-terminus and C-terminus assumed), which Kd is on record?
Its Kd is 300 nM.

`CC(C)C[C@@H]1NC(=O)[C@H](Cc2c[nH]c3ccccc23)NC(=O)[C@H](Cc2c[nH]c3ccccc23)NC(=O)[C@H]([C@@H](C)O)NC(=O)[C@H](CCC(=O)O)NC(=O)[C@@H]2CSCCC(=O)N3CN(CN(C3)C(=O)CCSC[C@H](N)C(=O)N[C@@H](CCC(N)=O)C(=O)N[C@@H](CCC(=O)O)C(=O)N[C@@H](CC(C)C)C(=O)N[C@@H](CC(=O)O)C(=O)N3CCC[C@H]3C(=O)N[C@@H](Cc3c[nH]c4ccccc34)C(=O)N[C@@H]([C@@H](C)O)C(=O)N2)C(=O)CCSC[C@@H](C(N)=O)NC1=O` [Example 181, (SEQ ID NO: 132)] (H-CQELDPWTCETWWLC-NH2; linker 1-9-15 via TATA; N-terminus and C-terminus assumed) was tested. Which Kd did it give?
The Kd was 310 nM.

With `CC(C)C[C@@H]1NC(=O)[C@H](Cc2c[nH]c3ccccc23)NC(=O)[C@H](Cc2c[nH]c3ccccc23)NC(=O)[C@H]([C@@H](C)O)NC(=O)[C@H](CCC(=O)O)NC(=O)[C@@H]2CSCCC(=O)N3CN(CN(C3)C(=O)CCSC[C@H](N)C(=O)N[C@@H]([C@@H](C)O)C(=O)N[C@@H](CCC(=O)O)C(=O)N[C@@H](CC(C)C)C(=O)N[C@@H](CC(=O)O)C(=O)N3CC(F)(F)C[C@H]3C(=O)N[C@@H](Cc3c[nH]c4ccccc34)C(=O)N[C@@H]([C@@H](C)O)C(=O)N2)C(=O)CCSC[C@@H](C(N)=O)NC1=O` [Example 182, (SEQ ID NO: 133)] as the compound, how does the Kd read?
Its Kd is 1300 nM.

With `CC(C)C[C@@H]1NC(=O)[C@H](Cc2c[nH]c3ccccc23)NC(=O)[C@H](Cc2c[nH]c3ccccc23)NC(=O)[C@H](CC(=O)O)NC(=O)[C@H](CCC(=O)O)NC(=O)[C@@H]2CSCCC(=O)N3CN(CN(C3)C(=O)CCSC[C@@H](C(=O)N[C@@H](C)C(N)=O)NC1=O)C(=O)CCSC[C@H](NC(=O)[C@H](C)N)C(=O)N[C@@H](C(C)C)C(=O)N[C@@H](CC(=O)O)C(=O)N[C@@H](CC(C)C)C(=O)N[C@@H](CC(=O)O)C(=O)N1CCC[C@H]1C(=O)N[C@@H](Cc1c[nH]c3ccccc13)C(=O)N[C@@H](CO)C(=O)N2` [Example 183, A-(SEQ ID NO: 134)-A] (H-ACVDLDPWSCEDWWLCA-NH2; linker 2-10-16 via TATA; N-terminus and C-terminus assumed) as the compound, how does the Kd read?
Its Kd is 330 nM.

Which Kd does the source give for `CC(C)C[C@@H]1NC(=O)[C@H](Cc2c[nH]c3ccccc23)NC(=O)[C@H](Cc2c[nH]c3ccccc23)NC(=O)[C@H]([C@@H](C)O)NC(=O)[C@H](CCC(=O)O)NC(=O)[C@@H]2CSCCC(=O)N3CN(CN(C3)C(=O)CCSC[C@H](N)C(=O)N[C@@H]([C@@H](C)O)C(=O)N[C@@H](CCC(=O)O)C(=O)N[C@@H](CC(C)C)C(=O)N[C@@H](CC(=O)O)C(=O)N3CCC[C@H]3C(=O)N[C@@H](Cc3c[nH]c4ccccc34)C(=O)N[C@@H]([C@@H](C)O)C(=O)N2)C(=O)CCSC[C@@H](C(N)=O)NC1=O` [Example 185, (SEQ ID NO: 121)] here?
The Kd was 260 nM.

How did the Kd turn out when `CC(C)C[C@@H]1NC(=O)[C@H](Cc2c[nH]c3ccccc23)NC(=O)[C@H](Cc2c[nH]c3ccccc23)NC(=O)[C@H](CC(=O)O)NC(=O)[C@@H]2CCCN2C(=O)[C@@H]2CSCCC(=O)N3CN(CN(C3)C(=O)CCSC[C@H](NC(=O)[C@H](CC(C)C)NC(=O)[C@H](CC(=O)O)NC(=O)[C@@H](N)CCCNC(=N)N)C(=O)N[C@@H]([C@@H](C)O)C(=O)N[C@@H](CC(=O)O)C(=O)N[C@@H](CC(C)C)C(=O)N[C@@H](CC(=O)O)C(=O)N3CCC[C@H]3C(=O)N[C@@H](Cc3c[nH]c4ccccc34)C(=O)N[C@@H]([C@@H](C)O)C(=O)N2)C(=O)CCSC[C@@H](C(=O)N[C@@H](C)C(N)=O)NC1=O` [Example 189, RDL-(SEQ ID NO: 138)-A] (H-RDLCTDLDPWTCPDWWLCA-NH2; linker 4-12-18 via TATA; N-terminus and C-terminus assumed) was run?
The Kd was 310 nM.

With `CC(C)C[C@@H]1NC(=O)[C@H](Cc2c[nH]c3ccccc23)NC(=O)[C@H](Cc2c[nH]c3ccccc23)NC(=O)[C@H](CO)NC(=O)[C@H](CO)NC(=O)[C@@H]2CSCCC(=O)N3CN(CN(C3)C(=O)CCSC[C@H](NC(=O)[C@H](CCC(N)=O)NC(=O)[C@H](Cc3c[nH]cn3)NC(=O)[C@@H](NC(=O)[C@H](CC(N)=O)NC(=O)[C@@H](NC(=O)[C@@H](N)CCCNC(=N)N)C(C)C)[C@@H](C)O)C(=O)N[C@@H](CCCNC(=N)N)C(=O)N[C@@H](CC(=O)O)C(=O)N[C@@H](CC(C)C)C(=O)N[C@@H](CC(=O)O)C(=O)N3CCC[C@H]3C(=O)N[C@@H](Cc3c[nH]c4ccccc34)C(=O)N[C@@H]([C@@H](C)O)C(=O)N2)C(=O)CCSC[C@@H](C(=O)N[C@@H](C)C(N)=O)NC1=O` [Example 190, RVNTHQ-(SEQ ID NO: 122)-A] as the compound, how does the Kd read?
Its Kd is 81 nM.

With `CC(C)C[C@@H]1NC(=O)[C@H](Cc2c[nH]c3ccccc23)NC(=O)[C@@H]2CSCCC(=O)N3CN(CN(C3)C(=O)CCSC[C@@H](C(=O)N[C@@H](C)C(N)=O)NC(=O)[C@@H]3CCCN3C1=O)C(=O)CCSC[C@H](NC(=O)[C@H](C)N)C(=O)N[C@@H](CC(=O)O)C(=O)N[C@@H](Cc1c[nH]c3ccccc13)C(=O)N[C@@H](CCC(N)=O)C(=O)N[C@@H](Cc1c[nH]c3ccccc13)C(=O)N[C@@H](CO)C(=O)N[C@@H](Cc1ccc(O)cc1)C(=O)N[C@@H](CC(=O)O)C(=O)N2` [Example 196, A-(SEQ ID NO: 141)-A] (H-ACDWQWSYDCWLPCA-NH2; linker 2-10-14 via TATA; N-terminus assumed) as the compound, how does the Kd read?
Its Kd is 6100 nM.

With `CC(C)C[C@@H]1NC(=O)[C@H](Cc2c[nH]c3ccccc23)NC(=O)[C@@H]2CSCCC(=O)N3CN(CN(C3)C(=O)CCSC[C@@H](C(=O)N[C@@H](C)C(N)=O)NC(=O)[C@@H]3CCCN3C1=O)C(=O)CCSC[C@H](NC(=O)[C@H](C)N)C(=O)N[C@@H](CC(=O)O)C(=O)N[C@@H](Cc1c[nH]c3ccccc13)C(=O)N[C@@H](C(C)C)C(=O)N[C@@H](Cc1c[nH]c3ccccc13)C(=O)N[C@@H](CCC(=O)O)C(=O)N[C@@H](Cc1ccc(O)cc1)C(=O)N[C@@H](CC(=O)O)C(=O)N2` [Example 197, A-(SEQ ID NO: 142)-A] (H-ACDWVWEYDCWLPCA-NH2; linker 2-10-14 via TATA; N-terminus and C-terminus assumed) as the compound, how does the Kd read?
The Kd was 460 nM.
